The SangsterLogP compilation

| SMILES | logP |
| --- | --- |
| O=C(O)COC(=O)c1cc(Oc2ccc(C(F)(F)F)cc2Cl)ccc1[N+](=O)[O-] | 4.27 |
| O=C(Oc1ccccc1)N1CCCC1 | 2.73 |
| COC(=O)c1cc(OC(=O)N2CCCC2)c(Cl)cc1Cl | 3.95 |
| O=C(Oc1ccc(Cl)cc1)N1CCCC1 | 3.38 |
| O=C(Oc1ccccc1Cl)N1CCCC1 | 3.13 |
| COC(=O)c1cc(Oc2ccc(C(F)(F)F)cc2Cl)ccc1Cl | 5.04 |
| C#CCOc1cc(OC(=O)N2CCC(F)(F)CC2)c(Cl)cc1Cl | 3.57 |
| C#CCOc1cc(OC(=O)N2CCC(F)(F)C2)c(Cl)cc1Cl | 3.42 |
| C#CCOc1cc(OC(=O)N(CC)CC)c(Cl)cc1Cl | 3.95 |
| CCOC(=O)C(C)OC(=O)c1cc(Oc2ccc(C(F)(F)F)cc2Cl)ccc1[N+](=O)[O-] (stereo not drawn) | 4.81 |
| O=C(Oc1cc(O)c(Cl)cc1Cl)N1CCCC1 | 2.98 |
| O=[N+]([O-])c1ccc(Oc2ccc(C(F)(F)F)cc2Cl)cc1Oc1ccoc1 | 4.33 |
| Nc1c([N+](=O)[O-])ccc(Oc2ccccc2)c1Cl | 4.04 |
| C#CCOC1=Nc2ccc(OC(=O)N3CCCC3)cc2OC1 | 2.93 |
| COC(=O)CC(C)(N=O)c1cc(Oc2ccc(C(F)(F)F)cc2Cl)ccc1[N+](=O)[O-] (stereo not drawn) | 4.54 |
| CC(C)OC(=O)c1cc(OC(=O)N2CCCC2)c(Cl)cc1Cl | 4.67 |
| COC(=O)c1cc(Oc2cc(C(F)(F)F)ccc2Cl)ccc1[N+](=O)[O-] | 4.21 |
| Cc1cccc(Oc2ccc([N+](=O)[O-])cc2)c1 | 4.4 |
| C#CCOc1cc(OC(=O)N2CCCC2)c(Cl)cc1Cl | 3.82 |
| O=[N+]([O-])c1ccc(Oc2ccc(Cl)cc2Cl)cc1 | 4.64 |
| C=COC(=O)[C@@H](C)Oc1cc(Oc2ccc(C(F)(F)F)cc2Cl)ccc1[N+](=O)[O-] | 4.54 |
| COC(=O)c1cc(Oc2ccc(C(F)(F)F)cc2Cl)ccc1[N+](=O)[O-] | 4.26 |
| C#CCOc1cc(OC(=O)N2CCCCC2)c(Cl)cc1Cl | 4.25 |
| COC(=O)c1cc(S(=O)(=O)c2ccc(C(F)(F)F)cc2Cl)ccc1[N+](=O)[O-] | 3.57 |
| CC(C)OC(=O)c1cc(OC(=O)N2CCCC2)c(F)cc1Cl | 4.2 |
| O=C(Oc1ccc(Cl)cc1Cl)N1CCCC1 | 3.94 |
| O=[N+]([O-])c1ccc(Oc2ccc(C(F)(F)F)cc2Cl)cc1 | 4.54 |
| COC(=O)c1cc(S(=O)c2ccc(C(F)(F)F)cc2Cl)ccc1[N+](=O)[O-] (stereo not drawn) | 3.65 |
